Assay: Polymorphic stability on storage at 40° C./75% relative humidity
Assay type: physicochemical
Settings: kept at a temperature of 40° C.±2° C. and a relative humidity of 75%±5% for 6 months
Experimental: All XRPD analyses were carried out on a Bruker D8 Advance instrument, equipped with a copper radiation source with a wavelength of 1.54 Å.
All DSC analyses were carried out on a Perkin Elmer instrument, over a temperature range of 25° C. to 250° C., at a heating rate of 10° C./min, using a closed aluminium pan with a pinhole as crucible.

O=C(CCCCCCC(=O)Nc1ccccc1)NO [crystalline form VI, N-hydroxy-N′-phenyl-octanediamide]
polymorphic stability (conversion over time to other polymorphs): very stable polymorphically with no conversion over time to other polymorphs

From patent US8754129B2, “Crystalline vorinostat form VI” (Generics [UK] Limited, priority 2008, dated 2014)
